Results published in patent US10322097B2, “Treatment of subjects with multidrug-resistant cancer” (priority 2015, dated 2019).
Converted amounts (≈) assume the structure as drawn. Like-named read-outs stand apart in the source and are kept apart here.

Experiments:
[1] = test system: HCT116 p53+/+ colon cancer cells; test: MTT cytotoxicity assay, HCT116 p53+/+; assay type: cell-based; details: read-out: IC50 HCT116 p53+/+ colon cancer cells
Description: (§1) Cell cultures and cytotoxicity assays have been used. Celastrol was dissolved in DMSO at a final concentration of 100 mmol/L and stored at −20° C. Cytotoxicity was assessed using the 3-(4,5-dimethylthiazol-2-yl)-2,5-diphenyltetrazolium bromide assay. 4000 cells from HCT116 p53^+/+ or p53^−/− colon cancer cells and DLD-1 Bax-Bak^+/+ or Bax-Bak^−/− colon cancer cells were seeded on 96-well plates per well. […] Subsequently, 10 μL of MTT reagents were added to each well and incubated at 37° C. for 4 hours followed by the addition of 100 μL solubilization buffer (10% SDS in 0.01 mol/L HCl) and overnight incubation. […] The percentage of cell viability was calculated using the following formula: Cell viability (%)=Cells number treated/Cells number DMSO control×100. Data were obtained from three independent experiments.

[2] = test system: HCT116 p53-/- colon cancer cells; test: MTT cytotoxicity assay, HCT116 p53-/-; assay type: cell-based; details: for Resistant Factor: IC50 HCT116 p53-/- divided by IC50 HCT116 p53+/+; for IC50: read-out: IC50 HCT116 p53-/- colon cancer cells
Description: as §1

[3] = test system: DLD-1 Bax-Bak+/+ colon cancer cells; test: MTT cytotoxicity assay, DLD-1 Bax-Bak+/+; assay type: cell-based; details: MTT, 3 days; for IC50: Homo sapiens, DLD-1, 72 h, read-out: IC50 DLD-1 Bax-Bak+/+ colon cancer cells
Description: as §1

[4] = test system: DLD-1 Bax-Bak-/- colon cancer cells; test: MTT cytotoxicity assay, DLD-1 Bax-Bak-/-; assay type: cell-based; details: for Resistant Factor: IC50 DLD-1 Bax-Bak-/- divided by IC50 DLD-1 Bax-Bak+/+; for IC50: Homo sapiens, DLD-1, 72 h, read-out: IC50 DLD-1 Bax-Bak-/- colon cancer cells
Description: as §1

[5] = test system: A2780 (Ovary) cisplatin sensitive cancer cells; test: MTT cytotoxicity assay, A2780 cisplatin sensitive; assay type: cell-based, human; details: MTT, 3 days; read-out: IC50 A2780 (Ovary) (Cisplatin sensitive)
Description: (§2) Cell cultures and cytotoxicity assays have been used. Celastrol was dissolved in DMSO at a final concentration of 100 mmol/L and stored at −20° C. Cytotoxicity was assessed using the 3-(4,5-dimethylthiazol-2-yl)-2,5-diphenyltetrazolium bromide assay. 4000 cells from A2780 cisplatin sensitive/resistant ovarian cancer cells or SGC-7901 cisplatin sensitive/resistant gastric cancer cells were seeded on 96-well plates per well. After overnight pre-incubation, the cells were exposed to different concentrations of celastrol (0.039-100 μmol/L) or cisplatin for 3 days. Subsequently, 10 μL of MTT reagents were added to each well and incubated at 37° C. for 4 hours followed by the addition of 100 μL solubilization buffer (10% SDS in 0.01 mol/L HCl) and overnight incubation. Absorbance at 585 nm was determined from each well the next day. The percentage of cell viability was calculated using the following formula: Cell viability (%)=Cells number treated/Cells number DMSO control×100. Data were obtained from three independent experiments.

[6] = test system: A2780 (Ovary) cisplatin resistant cancer cells; test: MTT cytotoxicity assay, A2780 cisplatin resistant; assay type: cell-based, human
Description: as §2

[7] = test system: SGC-7901 (Gastric) cisplatin sensitive cancer cells; test: MTT cytotoxicity assay, SGC-7901 cisplatin sensitive; assay type: cell-based, human; details: MTT, 3 days; read-out: IC50 SGC-7901 (Gastric) (Cisplatin sensitive)
Description: as §2

[8] = test system: SGC-7901 (Gastric) cisplatin resistant cancer cells; test: MTT cytotoxicity assay, SGC-7901 cisplatin resistant; assay type: cell-based, human
Description: as §2

[9] = molecular target: P-gp (Homo sapiens, UniProt P08183); test: Rho123 efflux assay in A549 taxol-resistant lung cancer cells (flow cytometry); details: 0.5 μM celastrol, pristimerin or dihydrocelastrol, or 10 μM verapamil, 24 h, then Rho123 1 h
Sequence of P-gp (P08183 whole entry): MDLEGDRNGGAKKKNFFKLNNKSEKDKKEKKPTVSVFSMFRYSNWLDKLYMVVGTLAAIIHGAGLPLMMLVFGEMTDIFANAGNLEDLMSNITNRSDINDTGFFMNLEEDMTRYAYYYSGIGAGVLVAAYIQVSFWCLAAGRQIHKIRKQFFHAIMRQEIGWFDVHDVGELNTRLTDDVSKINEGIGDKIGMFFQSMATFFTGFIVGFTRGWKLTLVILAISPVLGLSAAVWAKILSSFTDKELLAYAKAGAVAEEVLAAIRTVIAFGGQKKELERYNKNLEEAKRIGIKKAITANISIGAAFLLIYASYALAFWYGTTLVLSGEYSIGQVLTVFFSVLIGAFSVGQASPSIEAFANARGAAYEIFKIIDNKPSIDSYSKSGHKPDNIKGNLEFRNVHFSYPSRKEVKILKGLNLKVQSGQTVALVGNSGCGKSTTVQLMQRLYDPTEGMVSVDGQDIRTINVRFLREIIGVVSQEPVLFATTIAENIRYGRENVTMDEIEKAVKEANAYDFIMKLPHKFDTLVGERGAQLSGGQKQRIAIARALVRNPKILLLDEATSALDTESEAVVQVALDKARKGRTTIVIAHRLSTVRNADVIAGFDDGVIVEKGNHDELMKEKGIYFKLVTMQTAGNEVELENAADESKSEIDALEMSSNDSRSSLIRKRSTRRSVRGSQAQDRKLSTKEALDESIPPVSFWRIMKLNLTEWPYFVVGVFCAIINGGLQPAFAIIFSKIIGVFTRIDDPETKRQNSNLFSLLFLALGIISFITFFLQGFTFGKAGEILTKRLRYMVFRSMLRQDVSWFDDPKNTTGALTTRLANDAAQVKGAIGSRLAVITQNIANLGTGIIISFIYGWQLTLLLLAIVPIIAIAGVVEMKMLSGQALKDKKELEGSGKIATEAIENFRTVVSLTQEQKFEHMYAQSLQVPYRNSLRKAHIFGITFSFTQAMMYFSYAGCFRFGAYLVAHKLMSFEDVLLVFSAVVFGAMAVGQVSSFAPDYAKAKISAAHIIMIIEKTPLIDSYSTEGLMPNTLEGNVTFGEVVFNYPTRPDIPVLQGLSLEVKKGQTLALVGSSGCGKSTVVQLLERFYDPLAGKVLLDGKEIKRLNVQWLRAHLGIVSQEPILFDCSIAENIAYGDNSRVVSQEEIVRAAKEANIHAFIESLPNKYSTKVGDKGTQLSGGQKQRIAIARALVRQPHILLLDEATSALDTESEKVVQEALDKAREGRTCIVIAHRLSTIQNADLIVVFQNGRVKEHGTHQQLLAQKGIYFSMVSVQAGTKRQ
Description: A549 taxol-resistant lung cancer cells were seeded in 6 well-plates at a final concentration of 2×10^5 cells per well and cultured for 24 h at 37° C. in an atmosphere containing 5% CO2. […] Subsequently, 5 mg/mL Rho123 was added to each well and the wells were incubated for another 1 h at 37° C. At the end of the incubation, the accumulation of Rho123 was stopped by washing the cells five times with ice-cold PBS. After cell centrifugation, cell pellets were resuspended in 400 μL PBS. […] All data acquisition and analyses were performed with CellQuest (BD Biosciences, San Jose, Calif., USA) in triplicate in three independent experiments, and the results were shown as the mean of fluorescence intensity.
A549 taxol-resistant lung cancer cells were seeded in 6 well-plates at a final concentration of 2×10^5 cells per well and cultured for 24 h at 37° C. in an atmosphere containing 5% CO2. […] All data acquisition and analyses were performed with CellQuest (BD Biosciences, San Jose, Calif., USA) in triplicate in three independent experiments, and the results were shown as the mean of fluorescence intensity.

[10] = test system: A549 taxol-resistant lung cancer cells; test: MTT cytotoxicity of taxol in presence or absence of celastrol; assay type: cell-based; details: Homo sapiens, A549, 72 h, 3 days
Description: Cell cultures and cytotoxicity assays have been carried out. Celastrol was dissolved in DMSO at a final concentration of 100 mmol/L and stored at −20° C. Cytotoxicity was assessed using the 3-(4,5-dimethylthiazol-2-yl)-2,5-diphenyltetrazolium bromide assay. 4000 cells from A549 taxol-resistant lung cancer cells were seeded on 96-well plates per well. After overnight pre-incubation, the cells were exposed to different concentrations of taxol (0.019-100 μmol/L) in the presence or absence of celastrol (0.5 μM) for 3 days. Subsequently, 10 μL of MTT reagents was added to each well and incubated at 37° C. for 4 hours followed by the addition of 100 μL solubilization buffer (10% SDS in 0.01 mol/L HCl) and overnight incubation. […] The percentage of cell viability was calculated using the following formula: Cell viability (%)=Cells number treated/Cells number DMSO control×100. Data were obtained from three independent experiments.

[11] = test system: A549 (Lung) taxol sensitive cancer cells; test: MTT cytotoxicity assay, A549 taxol sensitive; assay type: cell-based; details: Homo sapiens, A549, 72 h; MTT, 3 days; read-out: IC50 A549 (Lung) (Taxol sensitive)
Description: (§3) Cell cultures and cytotoxicity assays have been used. Celastrol was dissolved in DMSO at a final concentration of 100 mmol/L and stored at −20° C. Cytotoxicity was assessed using the 3-(4,5-dimethylthiazol-2-yl)-2,5-diphenyltetrazolium bromide assay. 4000 cells from A549 (lung), A2780 (ovary), HCT-8 (colon) and MCF-7 (breast) cancer cells were seeded on 96-well plates per well. After overnight pre-incubation, the cells were exposed to different concentrations of celastrol (0.039-100 μmol/L) or taxol for 3 days. Subsequently, 10 μL of MTT reagents was added to each well and incubated at 37° C. for 4 hours followed by the addition of 100 μL solubilization buffer (10% SDS in 0.01 mol/L HCl) and overnight incubation. Absorbance at 585 nm was determined from each well the next day. The percentage of cell viability was calculated using the following formula: Cell viability (%)=Cells number treated/Cells number DMSO control×100. Data were obtained from three independent experiments.

[12] = test system: A549 (Lung) taxol resistant cancer cells; test: MTT cytotoxicity assay, A549 taxol resistant; assay type: cell-based, human; details: for Resistant Factor: A549 taxol resistant versus taxol sensitive
Description: as §3

[13] = test system: A2780 (Ovary) taxol sensitive cancer cells; test: MTT cytotoxicity assay, A2780 taxol sensitive; assay type: cell-based; details: Homo sapiens, A2780, 72 h; MTT, 3 days; read-out: IC50 A2780 (Ovary) (Taxol sensitive)
Description: as §3

[14] = test system: A2780 (Ovary) taxol resistant cancer cells; test: MTT cytotoxicity assay, A2780 taxol resistant; assay type: cell-based, human; details: for Resistant Factor: A2780 taxol resistant versus taxol sensitive
Description: as §3

[15] = test system: HCT-8 (Colon) taxol sensitive cancer cells; test: MTT cytotoxicity assay, HCT-8 taxol sensitive; assay type: cell-based; details: Homo sapiens, HCT-8, 72 h; MTT, 3 days; read-out: IC50 HCT-8 (Colon) (Taxol sensitive)
Description: as §3

[16] = test system: HCT-8 (Colon) taxol resistant cancer cells; test: MTT cytotoxicity assay, HCT-8 taxol resistant; assay type: cell-based, human; details: for Resistant Factor: HCT-8 taxol resistant versus taxol sensitive
Description: as §3

[17] = test system: MCF-7 (Breast) taxol sensitive cancer cells; test: MTT cytotoxicity assay, MCF-7 taxol sensitive; assay type: cell-based; details: Homo sapiens, MCF7, 72 h; MTT, 3 days; read-out: IC50 MCF-7 (Breast) (Taxol sensitive)
Description: as §3

[18] = test system: MCF-7 (Breast) taxol resistant cancer cells; test: MTT cytotoxicity assay, MCF-7 taxol resistant; assay type: cell-based, human
Description: as §3

[19] = test system: MCF-7 (Breast) doxorubicin resistant cancer cells; test: MTT cytotoxicity assay, MCF-7 doxorubicin resistant; assay type: cell-based, human
Description: as §2, with “MCF-7 doxorubicin” for “A2780 cisplatin”, “breast” for “ovarian”, “CEM doxorubicin” for “SGC-7901 cisplatin”, “leukemia” for “gastric cancer”, “doxorubicin” for “cisplatin”

[20] = Homo sapiens, HCT-116, 72 h, MTT, 3 days

## N.N.[Cl][Pt][Cl] [Cisplatin, cisplatin]
[1]; MTT, 3 days
  IC50: 0.19 µM
[2]
  Resistant Factor: 92.37
[2]; MTT, 3 days
  IC50: 17.6 µM
[3]
  IC50 DLD-1 Bax-Bak+/+ colon cancer cells: 1.994 µg/mL
[4]
  Resistant Factor: 1.84
[4]; MTT, 3 days
  IC50 DLD-1 Bax-Bak-/- colon cancer cells: 3.678 µg/mL
[5]
  IC50: 1.24 µM
[6]; A2780 cisplatin resistant versus cisplatin sensitive
  Resistant Factor: 14.92
[6]; MTT, 3 days, read-out: IC50 A2780 (Ovary) (Cisplatin resistant)
  IC50: 18.5 µM
[7]
  IC50: 1.26 µM
[8]; MTT, 3 days, read-out: IC50 SGC-7901 (Gastric) (Cisplatin resistant)
  IC50: 6.19 µM
[8]; SGC-7901 cisplatin resistant versus cisplatin sensitive
  Resistant Factor: 4.9

## COC(=O)[C@]1(C)CC[C@]2(C)CC[C@]3(C)C4=CC=C5C(=CC(=O)C(O)=C5C)[C@]4(C)CC[C@@]3(C)[C@@H]2C1 [pristimerin]
[9]
  P-gp activity / Rho123 accumulation (Example 9): showed P-pg inhibition

## CC(=O)O[C@H]1C(=O)[C@@]2(C)[C@H]([C@H](OC(=O)c3ccccc3)[C@]3(O)C[C@H](OC(=O)[C@H](O)[C@@H](NC(=O)c4ccccc4)c4ccccc4)C(C)=C1C3(C)C)[C@]1(OC(C)=O)CO[C@@H]1C[C@@H]2O [Taxol, paclitaxel (taxol)]
[10]; co-treated with 0.5 μM celastrol, read-out: mean IC50 of taxol in the presence of celastrol
  IC50: 2.17 µM
[10]; taxol alone, read-out: mean IC50 of taxol
  IC50: 36 µM
[1]; [20]
  IC50: 0.0195 µM
[2]; [20]
  IC50: 0.251 µM
[2]
  Resistant Factor: 12.87
[3]
  IC50: 0.00431 µM
[4]; MTT, 3 days
  IC50: > 0.1 µM
[4]
  Resistant Factor: >23.2
[11]
  IC50: 0.034 µM
[12]
  Resistant Factor: 894.12
[12]; listed as taxol
  Resistant Factor: over 894
[12]; Homo sapiens, A549, 72 h, MTT, 3 days, read-out: IC50 A549 (Lung) (Taxol resistant)
  IC50: 30.4 µM
[13]
  IC50: < 0.001 µM
[14]
  Resistant Factor: >62000
[14]; listed as taxol
  Resistant Factor: over 62000
[14]; Homo sapiens, A2780, 72 h, MTT, 3 days, read-out: IC50 A2780 (Ovary) (Taxol resistant)
  IC50: 62 µM
[15]
  IC50: < 0.001 µM
[16]
  Resistant Factor: >31000
[16]; listed as taxol
  Resistant Factor: 31000
[16]; Homo sapiens, HCT-8, 72 h, MTT, 3 days, read-out: IC50 HCT-8 (Colon) (Taxol resistant)
  IC50: 32 µM
[17]
  IC50: < 0.001 µM
[18]; Homo sapiens, MCF7, 72 h, MTT, 3 days, read-out: IC50 MCF-7 (Breast) (Taxol resistant)
  IC50: 5 µM
[18]; MCF-7 taxol resistant versus taxol sensitive
  Resistant Factor: 5000

## COc1cccc2c1C(=O)c1c(O)c3c(c(O)c1C2=O)C[C@@](O)(C(=O)CO)C[C@@H]3O[C@H]1C[C@H](N)[C@H](O)[C@H](C)O1 [Doxorubicin, doxorubicin]
[1]; Homo sapiens, HCT-116, 72 h
  IC50: 0.52 µM
[2]; Homo sapiens, HCT-116, 72 h
  IC50: 10.2 µM
[2]
  Resistant Factor: 19.52
[3]
  IC50: 0.0523 µg/mL
[4]; MTT, 3 days
  IC50: 0.539 µg/mL
[4]
  Resistant Factor: 10.31
[19]; Homo sapiens, MCF7, 72 h, MTT, 3 days, read-out: IC50 MCF-7 (Breast) (Doxorubicin resistant)
  IC50: 10 µg/mL (≈ 18.4 µM)
[19]; MCF-7 doxorubicin resistant versus doxorubicin sensitive
  Resistant Factor: 21.6

## COc1cc([C@@H]2c3cc4c(cc3[C@@H](O[C@@H]3O[C@@H]5CO[C@@H](C)O[C@H]5[C@H](O)[C@H]3O)[C@H]3COC(=O)[C@H]23)OCO4)cc(OC)c1O [Etoposide, etoposide]
[1]; [20]
  IC50: 0.94 µM
[2]; [20]
  IC50: 10.6 µM
[2]
  Resistant Factor: 11.28
[3]
  IC50: 2.36 µM
[4]; MTT, 3 days
  IC50: 40.4 µM
[4]
  Resistant Factor: 17.12

## CN[C@@H]1C[C@H]2O[C@@](C)([C@@H]1OC)n1c3ccccc3c3c4c(c5c6ccccc6n2c5c31)C(=O)NC4 [Staurosporine, staurosporine]
[2]; [20]
  IC50: 0.048 µM
[2]
  Resistant Factor: 13.01
[4]
  Resistant Factor: 3.34
